The source of these data is US7960549B2, “Solid forms of a chemokine receptor antagonist and methods of use thereof” (priority 2004, dated 2011).

What all share (assay type): physicochemical
Data set [1] is described as follows: Crystallization of the Citrate Salt (Form A exposed to solvent systems under the conditions of Table 9): form(s) obtained. From the text:
In other particular embodiments, solvents such as ethanol, methanol/heptane, MEK/water, n-propanol, isopropanol, isopropanol/water, acetonitrile/water, or methanol may be used to crystallize Form B. More particularly, Form B may be created by taking samples of Form A and exposing them to one of the solvent systems listed above. […] In each instance, Form A of the Citrate Salt is exposed to a solvent or solvent system under the particular conditions listed in Table 9 to generate the particular form(s) or amorphous Citrate Salt.

Data set [2] in a line: Water sorption/desorption cycling (dynamic vapor sorption, DVS) at 25° C., with XRPD before and after. Conditions: for XRPD before and after water sorption/desorption cycling: two consecutive cycles, 0% to 90% relative humidity. The protocol: Water sorption measurements are performed on a DVS-1 automated gravimetric vapor sorption analyser (Surface Measurement Systems Ltd., London, UK). The DVS-1 measures the uptake and loss of vapor gravimetrically using a Cahn D200 recording ultra-microbalance with a mass resolution of ±0.1 μg. The relative humidity around the sample is controlled by mixing saturated and dry carrier gas streams using mass flow controllers. The temperature is maintained within ±0.1° C. by enclosing the entire system in a temperature-controlled incubator. A sample size between 15 and 20 mg is used. In general, the error in % (w/w) identified in a tested sample is ±0.1% (w/w).
Two protocols are utilized to operate the DVS. In one protocol, a sample is dried at 0% relative humidity (RH) to remove any surface water present and establish a dry, baseline mass. Next, the sample is exposed to the following relative humidity profile: 0%, 10%, 20%, 30%, 40%, 50%, 60%, 70%, 80%, 90%, 80%, 70%, 60%, 50%, 40%, 30%, 20%, 10%, 0%. In some instances, this profile is repeated, yielding 4 sets of data going up and down in RH. In another protocol, the sample is first equilibrated at 40% RH, then it was exposed to the following relative humidity profile: 40%, 50%, 60%, 70%, 80%, 90%, 100%, 90%, 80%, 70%, 60%, 50% 40% 30%, 20% 10%, 0%, 10%, 20%, 30%, 40%. […] If equilibrium state is not reached, the change in relative humidity took place automatically after 360 or 600 minutes. From the complete moisture sorption and desorption profile, an isotherm is calculated using the DVS Advanced Analysis Suite v3.6. All experiments were performed at 25° C.

The nature of data set [3]: Differential scanning calorimetry (DSC). Here is the method: Differential scanning calorimetry (DSC) analyses are performed using a T.A Instruments Q1000 thermal analyser. Analyses are carried out using nitrogen purge gas flowing at an average rate of 50 ml/min. A mechanical compressor cools the system, and equilibrates the instruments being used at ambient temperature between analyses. […] Energy calibration is performed with a certified indium calibrator (melting enthalpy of 28.45 J/g), applying a heating rate of 5° C./min. The temperatures identified from DSC scans of a particular sample are accurate to within ±3° C. […] Modulated temperature differential scanning calorimetry (MTDSC) is also used since deconvolution of the total heat flow into reversing and non-reversing heat flows allows the transitions to be easily identified. The samples were submitted to the same experimental temperature program: after the equilibration of the sample at −5° C., the samples were heated through a modulated program from −5° C. to 210° C. at a rate of 1° C./min. […] Experiments are performed using crimped aluminium sample pans or open pans in some cases. The quantity of product analysed is typically between 2 and 13 mg.
For orientation: In DSC, transitions show as peaks or steps in heat flow.

Data set [4] in a line: Thermal gravimetric analysis (TGA). Conditions: for TGA weight loss of the transition / TGA weight loss transition, interpolated beginning temperature / TGA weight loss transition, temperature of maximum rate of weight loss: sample of the single form (Form H formed from Form E sample); for TGA weight loss transition, interpolated beginning temperature / TGA weight loss transition, temperature of maximum rate of weight loss: ±3° C. The protocol:
Measurements utilizing thermal gravimetric analysis (TGA) are carried out on a T.A. instruments TGAQ500 analyzer. Mass calibration is performed with 10 and 100 mg certified masses. Temperature calibration is performed with Alumel® and nickel standards (Curie points of respectively 154° C. and 354° C.). Samples are exposed to a constant nitrogen stream of 60 ml/min, and temperature ranges from room temperature to 350° C. at a 5° C./min rate. The quantity of product tested is between 2 and 13 mg. The sample is deposited in an open aluminum sample pan, which is itself placed in a platinum pan. The temperatures identified from TGA scans of a particular sample are accurate to within ±3° C. Simultaneous TGA and DSC measurements are carried out using a […] thermal analysis system produced by the […] corporation. A liquid nitrogen cooling system makes it possible to work at temperatures below 20° C. The emitted gases, upon sample heating, are carried by a transfer capillary tube to a Pfeiffer mass spectrometer, the capillary tube heated to 150° C. The mass spectrometer can analyze molecular fragments at <<m/e>> ratios between 1 and 200 uma. A sample with a mass between 1 and 27 mg is contained in an open concave aluminum sample pan (75 μL capacity) exposed to a nitrogen stream. The sample is heated at a rate of 1 or 5° C./min.

A short description of data set [5]: Prolonged exposure to fixed relative humidity or rinsing with water, XRPD before and after. Conditions: for crystal form by XRPD after exposure to a relative humidity of 97.5%: month long exposure, ambient temperature.
Data set [6] can be described thus: Controlled temperature (isothermal) X-ray powder diffraction: thermal stability of the crystalline form. The settings on record: dry nitrogen; for form conversion as the temperature is raised (isothermal XRPD): ambient to 210° C. Here is the method:
X-ray powder diffraction (XRPD) is performed on various samples of the Citrate Salt using one of three instruments. XRPD measurements with Instrument 1 utilize a Siemens-Bruker D5000 Matic powder diffractometer with a Bragg-Brentano (vertical θ-2θ configuration) parafocusing geometry. X-rays are produced from a sealed cobalt anode running at 40 kV and 30 mA. Two lines are typically emitted: CoKα1 (λ=1.7890 Å) and CoKα2 (λ=1.7929 Å). An iron β-filter limits the CoKβ (λ=1.6208 Å) radiation to about 1% of the diffracted beam at the detector. The primary beam passes through a parallel plate collimator (0.2 mm Soller slits), then through a divergence slit (0.2 mm). Diffracted X-rays are detected with a Braun 50 M multichannel linear detector having a 10°-wide detection window in angle 2θ. Scans are performed from 1.5° to 50.0° in 2θ, the scan time being 10 to 40 seconds per degree in 2θ. The error in the 2θ locations are typically within ±0.10 degrees.
In Instrument 3, XRPD measurements are performed at different temperatures to elucidate the evolution of crystal structure with temperature. Tests are carried out with a Siemens-Bruker D5000 diffractometer equipped with the Bragg Brentano parafocusing (θ-θ) geometry and an Anton-Paar TTK temperature chamber. Measurements utilize dry nitrogen or nitrogen streams having a particular humidity. The instrument specifications are substantially similar to the Siemens-Bruker D5000 Matic instrument described above (Instrument 1). Temperature is allowed to rise at a rate of 0.05° C./sec. Scans are recorded under the following conditions: a 1.5 to 50.0 degree scan in angle 2θ, 10 to 20 seconds counting time per degree in 2θ. Data are acquired in isotherm mode when the requested temperature is reached.

Where [7] appears, read: heating rate 5° C./min, A, B, H: melting/decomposition, E: loss of water and conversion to Form H, ±3° C.
[8] abbreviates: sample including Forms A and C, 5° C./min, Form C: conversion to Form A, Form A: melting/decomposition.

Each structure is given as a SMILES string. Where a name gives a salt, the structure may show the parent alone.

Consider `CC(C)(O)c1ccc2c(c1)/C(=C/CCN1CC[C@](O)(c3ccc(Cl)cc3)C(C)(C)C1)c1cccnc1CO2` [Citrate Salt, citrate salt of (S)-4-(4-Chloro-phenyl)-1-{3-[7-(1-hydroxy-1-methyl-ethyl)-11H-10-oxa-1-aza-dibenzo[a,d]cyclohepten-5-ylidene]-propyl}-3,3-dimethyl-piperidin-4-ol], for which the “Form(s) identified” value in data set [1] (Crystallization after dissolution THF, followed by a slow evaporation at ambient temperature and atmospheric pressure) was “A + D”; in data set [1] (Crystallization after dissolution at high temperature in THF/water) it was “A + C”; in data set [1] (Dissolution at ambient temperature in DMSO/water), “Amorphous”; in data set [1] (Dissolution in THF/water and azeotropic distillation (isolation in water)), “Amorphous”; in data set [1] (Dissolution in dichloromethane/methanol, followed by a quick evaporation at ambient temperature and low pressure), “Amorphous”; in data set [1] (Maturation in THF of Forms A and B at ambient temperature) it was “A + C”. Besides, in data set [1] (Maturation in water of the amorphous form at ambient temperature), the “Form(s) identified” value is “E + F + G”.

`CC(C)(O)c1ccc2c(c1)/C(=C/CCN1CC[C@](O)(c3ccc(Cl)cc3)C(C)(C)C1)c1cccnc1CO2` [Form B, citrate salt of (S)-4-(4-Chloro-phenyl)-1-{3-[7-(1-hydroxy-1-methyl-ethyl)-11H-10-oxa-1-aza-dibenzo[a,d]cyclohepten-5-ylidene]-propyl}-3,3-dimethyl-piperidin-4-ol]: in data set [2] (25° C.), the “change in moles of water per mole of anhydrous crystal over relative humidity 0% to 90%” value was “about 0.4 moles of water per mole of anhydrous crystal”; the “XRPD before and after water sorption/desorption cycling” value is recorded as “no structural change”. The “change in mass as the relative humidity is changed between 0% and 90%” value in data set [2] (25° C., dry crystal basis, known to within ±0.1%) is “about 0.9%”. For the same molecule, in data set [3] (heating rate 1° C./min), the “DSC endothermic transition, Tmax” value worked out at 179 °C and the “DSC endothermic transition, interpolated beginning temperature” value is 174 °C. In data set [3] (setting [7]), the “DSC endothermic transition, Tmax” value came to 189 °C and the “DSC endothermic transition, interpolated beginning temperature” value came to 184 °C. In data set [4] (heating rate 5° C./min), the “TGA weight loss from ambient temperature to about 100° C.” value was “No weight loss is detected”; the “TGA weight loss of the transition” value is given as “about 27.5 % (w/w)”; the “TGA weight loss transition, interpolated beginning temperature” value is “about 180 °C”; the “TGA weight loss transition, temperature of maximum rate of weight loss” value was determined as 192 °C. Besides, in data set [5], the “stability when rinsed with water, XRPD before and after the rinsing” value is given as “stable to 100% relative humidity”; the “crystal form by XRPD after exposure to a relative humidity of 97.5%” value is “does not change form”.

In the case of `CC(C)(O)c1ccc2c(c1)/C(=C/CCN1CC[C@](O)(c3ccc(Cl)cc3)C(C)(C)C1)c1cccnc1CO2` [Form C, citrate salt of (S)-4-(4-Chloro-phenyl)-1-{3-[7-(1-hydroxy-1-methyl-ethyl)-11H-10-oxa-1-aza-dibenzo[a,d]cyclohepten-5-ylidene]-propyl}-3,3-dimethyl-piperidin-4-ol], the “XRPD before and after water sorption/desorption cycling” value in data set [2] (25° C.) is reported as “no structural modification”. Besides, in data set [3] (heating rate 20° C./min), the “DSC endothermic transition between Form C and Form A, Tmax” value was 171 °C; the “DSC endothermic transition between Form C and Form A, interpolated beginning temperature” value was 165 °C. For the same molecule, in data set [3] (setting [8]), the “DSC endothermic transition, Tmax” value came out at 166 °C and the “DSC endothermic transition, interpolated beginning temperature” value is “about 161 °C”. Also, in data set [4] (sample including Forms A and C), the TGA weight loss entry is “about 8.22 % (w/w)” and the “TGA weight loss, temperature of maximum rate of weight loss” value was determined as 162 °C. The “TGA weight loss, interpolated beginning temperature” value in data set [4] (sample including Forms A and C, Form C: conversion away from Form C, Form A: decomposition/melting) is 157 °C. For the same molecule, in data set [6], the “form conversion as the temperature is raised (isothermal XRPD)” value is “conversion of the Form C crystals to Form A”.

As for `CC(C)(O)c1ccc2c(c1)/C(=C/CCN1CC[C@](O)(c3ccc(Cl)cc3)C(C)(C)C1)c1cccnc1CO2` [Form E, citrate salt of (S)-4-(4-Chloro-phenyl)-1-{3-[7-(1-hydroxy-1-methyl-ethyl)-11H-10-oxa-1-aza-dibenzo[a,d]cyclohepten-5-ylidene]-propyl}-3,3-dimethyl-piperidin-4-ol], in data set [2] (25° C.), the “weight change / water uptake between 10% and 90% relative humidity” value is “about 2.28 % (w/w)”; the “weight gain / water uptake as relative humidity is increased from 0% to 10%” value is listed as “about 5.13 % (w/w)”; the “XRPD before and after water sorption/desorption cycling” value is reported as “a structure corresponding with Form H after the cycling”. For the same molecule, the “behaviour under 10% relative humidity (observed at 0% relative humidity)” value in data set [2] (ambient temperatures) is recorded as “fully transforms into form H”. Further, in data set [3] (setting [7]), the “DSC endothermic transition, Tmax” value came out at 67 °C and the “DSC endothermic transition, interpolated beginning temperature” value was found to be 45 °C. Further, the “DSC endothermic transition, integrated enthalpy change” value in data set [3] (heating rate 5° C./min, transition 2411, conversion of Form E to Form H) is given as 178.3 J/g. For the same molecule, in data set [4] (heating rate 5° C./min), the “TGA weight loss of the transition” value is listed as 6.14 % (w/w); the “TGA weight loss transition, interpolated beginning temperature” value was 52 °C; the “TGA weight loss transition, temperature of maximum rate of weight loss” value is 64 °C. Moreover, in data set [6], the “form conversion as the temperature is raised (isothermal XRPD)” value is on record as “converts to Form B”. The “loss of stability (lines unique to the form disappear), isothermal XRPD” value in data set [6] (sample containing Forms E, F, and G, steps of 10° C.) was “above 50 °C”.

For `CC(C)(O)c1ccc2c(c1)/C(=C/CCN1CC[C@](O)(c3ccc(Cl)cc3)C(C)(C)C1)c1cccnc1CO2` [batch F1], in data set [5], the “stability when rinsed with water, XRPD before and after the rinsing” value was “loss of lines of Form F and diminution of lines of Form G, while the lines of Form E grow”; the “crystal form by XRPD after exposure to a relative humidity of 97.5%” value was “loss of lines of Form F and diminution of lines of Form G, while the lines of Form E grow”. Besides, the “crystal form by XRPD after exposure to a relative humidity of 0%” value in data set [5] (about one month) is “a mixture of Forms E and B”.
